Results: PMC9080489, “Synthesis and biological evaluation of 2-aryl-benzimidazole derivatives of dehydroabietic acid as novel tubulin polymerization inhibitors” (RSC Advances, 2018)
Like-named read-outs stand apart in the source and are kept apart here.

Columns and labels:
[1] = system: human cervical carcinoma cell line (HeLa); assay: MTT cytotoxic assay, HeLa; assay type: cell-based; conditions: read-out: IC50 HeLa
Procedure: (§1) The in vitro antiproliferative activity of DAA derivatives (1–5, 6a–k, 7a–k) were evaluated by MTT assay against human hepatocarcinoma cell line (SMMC-7721), human breast cancer cell line (MDA-MB-231), human cervical carcinoma cell line (HeLa), mouse colon cancer cell line (CT-26) and human normal hepatocyte cell line (QSG-7701). Nocodazole was co-assayed as the positive control and DMEM culture medium containing 0.1% DMSO was used as negative control. The results of the tested compounds expressed as IC50 values (concentration required to inhibit tumor cell proliferation by 50%) were presented in Table 1.
(§2) The human hepatocarcinoma cell line (SMMC-7721), human breast cancer cell line (MDA-MB-231), human cervical carcinoma cell line (HeLa), mouse colon cancer cell line (CT-26) and human normal hepatocyte cells (QSG-7701) used in this study were all obtained from Keygene Biotech., China. These cell lines were maintained in DMEM medium supplemented with 10% heat-inactivated fetal bovine serum in a humidified atmosphere of 5% CO2 at 37 °C.
(§3) The in vitro cytotoxic activities of the benzimidazole derivatives of dehydroabietic acid were evaluated against tested cell lines via the MTT colorimetric method. Briefly, different tumor cells were grown in DMEM medium supplemented with 10% fetal bovine serum, penicillin (100 U mL^−1), and streptomycin (50 μg mL^−1). Cells were harvested at log phase of growth and seeded in 96-well plates (100 μL per well at a density of 2 × 10^5 cells mL^−1). After 24 h incubation at 37 °C and 5% CO2 to allow cell attachment, cultures were exposed to various concentrations of the isolated compounds for 48 h. Finally, MTT solution (2.5 mg mL^−1 in PBS) was added (40 μL per well). Plates were further incubated for 4 h at 37 °C, and the formazan crystals formed were dissolved by adding 150 μL per well of DMSO. Absorption at 570 nm was measured with an ELISA plate reader. The results were expressed as IC50 values with standard deviations, which was defined as the concentration at which 50% survival of cells was discerned. Nocodazole was co-assayed as positive control.

[2] = system: human hepatocarcinoma cell line (SMMC-7721); assay: MTT cytotoxic assay, SMMC-7721; assay type: cell-based; conditions: read-out: IC50 SMMC-7721
Procedure: as §1, §2, §3

[3] = system: mouse colon cancer cell line (CT-26); assay: MTT cytotoxic assay, CT-26; assay type: cell-based; conditions: read-out: IC50 CT-26
Procedure: as §1, §2, §3

[4] = system: human breast cancer cell line (MDA-MB-231); assay: MTT cytotoxic assay, MDA-MB-231; assay type: cell-based; conditions: read-out: IC50 MDA-MB-231
Procedure: as §1, §2, §3

[5] = system: human normal hepatocyte cell line (QSG-7701); assay: MTT cytotoxic assay, QSG-7701; assay type: cell-based; conditions: QSG7701, 48 h exposure
Procedure: as §1, §2, §3

[6] = Homo sapiens, SMMC-7721, 48 h, MTT, 48 h exposure
[7] = Mus musculus, CT26, 48 h, MTT, 48 h exposure

SMILES	IC50 ([1]; MTT, 48 h exposure)	IC50 [2, 6]	IC50 [3, 7]	IC50 ([4]; MDA-MB-231, MTT, 48 h exposure)	IC50 ([1]; 48 h)	IC50 ([2]; Homo sapiens, SMMC-7721, 48 h)	IC50 ([3]; Mus musculus, CT26, 48 h)	IC50 ([4]; MDA-MB-231, 48 h)	IC50 [5]	melting point	IC50 ([3]; MTT, 48 h exposure)	IC50 ([2]; MTT, 48 h exposure)
CC(C)c1ccc2c(c1)CC[C@H]1[C@](C)(C(=O)O)CCC[C@]21C [Compound 1, Dehydroabietic acid]	> 50 µM	> 50 µM	> 50 µM	> 50 µM	–	–	–	–	–	–	–	–
COC(=O)[C@]1(C)CCC[C@]2(C)c3ccc(C(C)C)cc3CCC12 (some centres unmarked) [Compound 2]	> 50 µM	> 50 µM	> 50 µM	> 50 µM	–	–	–	–	–	–	–	–
COC(=O)[C@]1(C)CCC[C@]2(C)c3cc(Br)c(C(C)C)cc3CCC12 (some centres unmarked) [Compound 3]	> 50 µM	> 50 µM	> 50 µM	> 50 µM	–	–	–	–	–	–	–	–
COC(=O)[C@]1(C)CCC[C@]2(C)c3cc(Br)c([N+](=O)[O-])c([N+](=O)[O-])c3CCC12 (some centres unmarked) [Compound 4, methyl 12-bromo-13,14-dinitro-deisopropyldehydroabietate]	–	–	–	–	> 50 µM	31.8 ± 3.22 µM	35.1 ± 3.87 µM	38.8 ± 2.15 µM	–	–	–	–
COC(=O)[C@]1(C)CCC[C@]2(C)c3cc(Br)c(N)c(N)c3CCC12 (some centres unmarked) [Compound 5]	43.4 ± 2.81 µM	> 50 µM	38.5 ± 3.79 µM	> 50 µM	–	–	–	–	–	–	–	–
COC(=O)[C@]1(C)CCC[C@]2(C)c3cc(Br)c4nc(-c5ccccc5)[nH]c4c3CCC12 (some centres unmarked) [Compound 6a, Methyl 2′-phenyl-12-bromo-13,14-imidazolyl-deisopropyl-dehydroabietate]	16.2 ± 1.73 µM	12.5 ± 0.45 µM	6.34 ± 0.83 µM	41.7 ± 2.06 µM	–	–	–	–	> 50 µM	123 to 125 °C	–	–
COC(=O)[C@]1(C)CCC[C@]2(C)c3cc(Br)c4nc(-c5ccc(C)cc5)[nH]c4c3CCC12 (some centres unmarked) [Compound 6b, Methyl 2′-(p-tolyl)-12-bromo-13,14-imidazolyl-deisopropyl-dehydroabietate]	> 50 µM	> 50 µM	25.3 ± 4.96 µM	> 50 µM	–	–	–	–	–	143 to 145 °C	–	–
COC(=O)[C@]1(C)CCC[C@]2(C)c3cc(Br)c4nc(-c5ccc(F)cc5)[nH]c4c3CCC12 (some centres unmarked) [Compound 6c, Methyl 2′-(4-fluorophenyl)-12-bromo-13,14-imidazolyl-deisopropyl-dehydroabietate]	8.01 ± 0.76 µM	–	< 5 µM	18.2 ± 1.2 µM	–	–	–	–	> 50 µM	149 to 151 °C	2.82 ± 0.97 µM	–
COC(=O)[C@]1(C)CCC[C@]2(C)c3cc(Br)c4nc(-c5cccc(F)c5)[nH]c4c3CCC12 (some centres unmarked) [Compound 6d, Methyl 2′-(3-fluorophenyl)-12-bromo-13,14-imidazolyl-deisopropyl-dehydroabietate]	17.7 ± 3.02 µM	< 5 µM	< 5 µM	12 ± 1.31 µM	–	–	–	–	> 50 µM	142 to 144 °C	3.39 ± 0.33 µM	5.27 ± 0.27 µM
COC(=O)[C@]1(C)CCC[C@]2(C)c3cc(Br)c4nc(-c5ccccc5F)[nH]c4c3CCC12 (some centres unmarked) [Compound 6e, Methyl 2′-(2-fluorophenyl)-12-bromo-13,14-imidazolyl-deisopropyl-dehydroabietate]	> 50 µM	12.3 ± 2.46 µM	> 50 µM	> 50 µM	–	–	–	–	–	138 to 139 °C	–	–
COC(=O)[C@]1(C)CCC[C@]2(C)c3cc(Br)c4nc(-c5ccc(Cl)cc5)[nH]c4c3CCC12 (some centres unmarked) [Compound 6f, Methyl 2′-(4-chlorophenyl)-12-bromo-13,14-imidazolyl-deisopropyl-dehydroabietate]	> 50 µM	16.5 ± 1.87 µM	> 50 µM	33.7 ± 4.7 µM	–	–	–	–	–	139 to 141 °C	–	–
COC(=O)[C@]1(C)CCC[C@]2(C)c3cc(Br)c4nc(-c5ccccc5Cl)[nH]c4c3CCC12 (some centres unmarked) [Compound 6g, Methyl 2′-(2-chlorophenyl)-12-bromo-13,14-imidazolyl-deisopropyl-dehydroabietate]	> 50 µM	40.8 ± 3.32 µM	> 50 µM	19.2 ± 0.93 µM	–	–	–	–	–	142 to 143 °C	–	–
COC(=O)[C@]1(C)CCC[C@]2(C)c3cc(Br)c4nc(-c5ccc(Br)cc5)[nH]c4c3CCC12 (some centres unmarked) [Compound 6h, Methyl 2′-(4-bromophenyl)-12-bromo-13,14-imidazolyl-deisopropyl-dehydroabietate]	> 50 µM	16.6 ± 1.4 µM	> 50 µM	35.3 ± 1.77 µM	–	–	–	–	–	141 to 142 °C	–	–
COC(=O)[C@]1(C)CCC[C@]2(C)c3cc(Br)c4nc(-c5ccc(OC)cc5)[nH]c4c3CCC12 (some centres unmarked) [Compound 6i, Methyl 2′-(4-methoxyphenyl)-12-bromo-13,14-imidazolyl-deisopropyl-dehydroabietate]	> 50 µM	> 50 µM	21.2 ± 2.23 µM	> 50 µM	–	–	–	–	–	140 to 142 °C	–	–
COC(=O)[C@]1(C)CCC[C@]2(C)c3cc(Br)c4nc(-c5c[nH]c6ccccc56)[nH]c4c3CCC12 (some centres unmarked) [Compound 6k, Methyl 2′-(1H-indol-3-yl)-12-bromo-13,14-imidazolyl-deisopropyl-dehydroabietate]	0.98 ± 0.11 µM	–	–	0.56 ± 0.13 µM	–	–	–	–	8.43 ± 1.06 µM	139 to 140 °C	–	–
COC(=O)[C@]1(C)CCC[C@]2(C)c3cc(-c4cc(OC)c(OC)c(OC)c4)c4nc(-c5ccc(C)cc5)[nH]c4c3CCC12 (some centres unmarked) [Compound 7b, Methyl 2′-(p-tolyl)-12-(3,4,5-trimethoxyphenyl)-13,14-imidazolyl-deisopropyl-dehydroabietate]	> 50 µM	> 50 µM	15.6 ± 1.57 µM	> 50 µM	–	–	–	–	–	133 to 135 °C	–	–
COC(=O)[C@]1(C)CCC[C@]2(C)c3cc(-c4cc(OC)c(OC)c(OC)c4)c4nc(-c5ccccc5F)[nH]c4c3CCC12 (some centres unmarked) [Compound 7e, Methyl 2′-(2-fluorophenyl)-12-(3,4,5-trimethoxyphenyl)-13,14-imidazolyl-deisopropyl-dehydroabietate]	18.3 ± 2.98 µM	> 50 µM	10.4 ± 1.91 µM	18.2 ± 1.32 µM	–	–	–	–	–	155 to 157 °C	–	–
COC(=O)[C@]1(C)CCC[C@]2(C)c3cc(-c4cc(OC)c(OC)c(OC)c4)c4nc(-c5ccccc5Cl)[nH]c4c3CCC12 (some centres unmarked) [Compound 7g, Methyl 2′-(2-chlorophenyl)-12-(3,4,5-trimethoxyphenyl)-13,14-imidazolyl-deisopropyl-dehydroabietate]	> 50 µM	> 50 µM	13.4 ± 2.35 µM	15.7 ± 0.87 µM	–	–	–	–	–	157 to 159 °C	–	–
COC(=O)[C@]1(C)CCC[C@]2(C)c3cc(-c4cc(OC)c(OC)c(OC)c4)c4nc(-c5ccc(OC)cc5)[nH]c4c3CCC12 (some centres unmarked) [Compound 7i, Methyl 2′-(4-methoxyphenyl)-12-(3,4,5-trimethoxyphenyl)-13,14-imidazolyl-deisopropyl-dehydroabietate]	> 50 µM	> 50 µM	23.5 ± 2.38 µM	> 50 µM	–	–	–	–	–	153 to 155 °C	–	–
COC(=O)[C@]1(C)CCC[C@]2(C)c3cc(-c4cc(OC)c(OC)c(OC)c4)c4nc(-c5ccc6[nH]ccc6c5)[nH]c4c3CCC12 (some centres unmarked) [Compound 7j, Methyl 2′-(1H-indol-5-yl)-12-(3,4,5-trimethoxyphenyl)-13,14-imidazolyl-deisopropyl-dehydroabietate]	3.75 ± 0.78 µM	–	–	0.83 ± 0.2 µM	–	–	–	–	12.8 ± 1.27 µM	189 to 191 °C	–	–
COC(=O)[C@]1(C)CCC[C@]2(C)c3cc(-c4cc(OC)c(OC)c(OC)c4)c4nc(-c5c[nH]c6ccccc56)[nH]c4c3CCC12 (some centres unmarked) [Compound 7k, Methyl 2′-(1H-indol-3-yl)-12-(3,4,5-trimethoxyphenyl)-13,14-imidazolyl-deisopropyl-dehydroabietate]	5.86 ± 0.63 µM	–	–	0.21 ± 0.02 µM	–	–	–	–	11.8 ± 2.12 µM	199 to 201 °C	–	–
COC(=O)Nc1nc2ccc(C(=O)c3cccs3)cc2[nH]1 [Nocodazole, nocodazole, reference compound]	0.87 ± 0.05 µM	0.92 ± 0.07 µM	1.37 ± 0.11 µM	0.76 ± 0.06 µM	–	–	–	–	13.8 ± 1.08 µM	–	–	–
